{"source": "patent US20030088312A1", "about": "“Use of cladribine on a stent to prevent restenosis” (priority 2000, published 2003)", "tested_on": "human smooth muscle cells", "test": "Inhibition of PDGF-stimulated human smooth muscle cell proliferation (cell count, day 6)", "format": "cell-based", "settings": "ratio of IC50 values, SMC vs EC", "method": "To assess the ability of cladribine to prevent cell proliferation, human smooth muscle or endothelial cells (Clonetics, Walkersville, Md.) were seeded at a density of 2000 cells/cm^2 (approximately […] cells/well) into each well of 12-well plates and cultured with 1.5 ml of growth medium containing 5% fetal calf serum (FCS). After 24 hours, the growth medium was changed and fresh medium containing 10 ng/ml platelet-derived growth factor AB (PDGF AB; LIFE Technologies), as well as various concentrations of cladribine (0.001-10,000 nM) were added with triplicate wells. Medium was replaced with fresh cladribine-containing medium after 3 days. On day six, cells were detached by trypsinization to yield a cell suspension, lightly centrifuged to pellet and then counted manually using a Neubauer hemacytometer system. Clee viability was assessed by trypan blue exclusion.\nTable 1 provides the percent inhibition of the various tested concentrations of cladribine on human smooth muscle and endothelial cells in culture. Cladribine produced a concentration-related decrease in the proliferation of both smooth muscle and endothelial cells in this model system. […]"}
{"smiles": "Nc1nc(Cl)nc2c1ncn2[C@H]1C[C@H](O)[C@@H](CO)O1", "note": "[Cladribine]", "values": [{"measurement": "potency as inhibitor of smooth muscle cells relative to endothelial cells", "result": "approximately twice as potent"}]}
